In patent publication US20090252687A1, “ASYMMETRIC FLUORO-SUBSTITUTED POLYMETHINE DYES” (priority 2006, published 2009):

Experiment: Photostability of the fluorescence signal
Type: physicochemical
Conditions: 1:1 methanol:water; Karl Storz Xenon 175 light source at 100% intensity for 30 min; fraction of dark control
Description: In a further example the photostability of the fluorescence signal was measured. The photostability of Compound 3 (the fluorinated Cy3F pyrylium of Example 19) was studied in comparison with a non-fluorinated analogue, Cy3 pyrylium (Compound C)
The dyes were dissolved in a 1:1 mixture of methanol:water to give an absorbance reading of 1Au at the dyes lambda max and then diluted 20 times for fluorescence measurements. The samples were exposed to light with a Karl Storz Xenon 175 light source at 100% intensity for 30 min. The cuvette was kept in a water bath while exposed to light, to avoid heating. Fluorescence measurements were made on Cary Eclipse (Varian) fluorescence spectrophotometer 1 cm cuvette, ex/em slit 5 nm

Row | SMILES | max fluorescence intensity relative to the dark control (photostability)
1 | CN(C)c1ccc2c(c1)OC(C(C)(C)C)=C/C2=C\C=C\C1=[N+](CCCCCC(=O)O)c2c(F)c(F)c(F)c(F)c2C1(C)CCCCS(=O)(=O)[O-] (centres unmarked) [Compound 3, 4-[2-{(1E,3E)-3-[2-tert-butyl-7-(dimethylamino)-4H-chromen-4-ylidene]prop-1-enyl}-1-(5-carboxypentyl)-4,5,6,7-tetrafluoro-3-methyl-3H-indolium-3-yl]butane-1-sulfonate] | 0.94
2 | CN(C)c1ccc2c(c1)OC(C(C)(C)C)=C/C2=C\C=C\C1=[N+](CCCCCC(=O)O)c2ccc(S(=O)(=O)[O-])cc2C1(C)C [Compound C] | 0.79
